Data as given in patent US5698411A, “Method for determining activity of enzymes in metabolically active whole cells” (priority 1995, dated 1997).

Assays:
Format in all cases: cell-based, human
[1] = test system: metabolically active whole cell; test: substrate panel in normals and HIV + patients, TB infection (Table 4); design: unit not given here
Method: A panel of assay compounds are assembled consisting of Ala-aminopeptidase and Lys-aminopeptidase, Dipeptidyl peptidase IV (Ala-Ala)2 rhodamine 110 and Cathepsin D to indicate possible TB infection in AIDS related cases.
A panel Of enzymatic substrates is performed consisting of Ala-aminopeptidase and Lys-aminopeptidase, Dipeptidyl peptidase IV (Ala-Ala)2 rhodamine 110 and Cathepsin D to indicate possible TB infection in AIDS related cases.

granulocytes [2] = test: peptidase activity in leukemia and non-leukemia patients, granulocytes (Table 6C); design: unit not given here
Text: (§1) Artificial intelligence was used to analyze data of cellular enzyme functions, and determine normal and disease states. Peptidases were used to distinguish leukemia from non-leukemia (output pattern). For input patterns lymphocyte and granulocyte cell types were used with aminopeptidases, cathepsins and dipeptidylpeptidase enzyme activities. In this Example, illustrated in Tables 6A-6C, three normals and three leukemia patients were used as known output patterns for the neural network to learn (in practice, the larger the learning set the more accurate unknown prediction will be). Unknowns were then presented to the learned algorithm as shown in the test case examples. Clinical diagnosis was confirmed by physicians. The trained neural network was able to correctly classify the leukemia from the non-leukemia.

monocytes = test: aberrant enzyme activities in febrile children, monocytes (Table 7)
granulocytes [3] = test: aberrant enzyme activities in febrile children, granulocytes (Table 7)
lymphocytes [4] = test: aberrant enzyme activities in febrile children, lymphocytes (Table 7)
lymphocytes [5] = test: peptidase activity in leukemia and non-leukemia patients, lymphocytes (Table 6C); design: unit not given here
Text: as §1

## NCC(=O)N1CCC[C@H]1C(=O)Nc1ccc2c(c1)Oc1cc(NC(=O)[C@@H]3CCCN3C(=O)CN)ccc1C21OC(=O)c2ccccc21 [GLY--PRO*]
[1]; HIV + PATIENTS
  MEAN DELTA FL: 21.4
[1]; HIV + PATIENTS, listed as GLY--PRO****
  MEAN DELTA FL: 18.4
[1]; NORMALS
  MEAN DELTA FL: 50.9
[1]; NORMALS, listed as GLY--PRO****
  MEAN DELTA FL: 46.7

## NCCCC[C@H](N)C(=O)Nc1ccc2c(c1)Oc1cc(NC(=O)[C@@H](N)CCCCN)ccc1C21OC(=O)c2ccccc21 [LYS, (H-L-Lys)2 Rho 110 .4TFA]
Granulocytes [2]; J22 12/9/91 A M L
  enzyme activity, Grans: 1.90
Granulocytes [2]; N191 normal
  enzyme activity, Grans: 1.20
Granulocytes [2]; N192 normal
  enzyme activity, Grans: 1.20
Granulocytes [2]; N199 normal
  enzyme activity, Grans: 0.95
monocytes; P97 Pyelonephritis
  aberrant enzyme activity, MONOS: .smallcircle.
Granulocytes [3]; P103 Viral Syndrome
  aberrant enzyme activity, GRANS: .smallcircle.
Lymphocytes [4]; P92 Adenitis
  aberrant enzyme activity, LYMPHS: .smallcircle.
Lymphocytes [4]; P97 Pyelonephritis
  aberrant enzyme activity, LYMPHS: .smallcircle.
Lymphocytes [4]; P103 Viral Syndrome
  aberrant enzyme activity, LYMPHS: .smallcircle.
[1]; HIV + PATIENTS
  MEAN DELTA FL: 7.4
[1]; NORMALS
  MEAN DELTA FL: 10.5
Lymphocytes [5]; J4 11/21/91 acute leuk.
  enzyme activity, Lymphs: 0.77
Lymphocytes [5]; J19 11/27/91 C L L
  enzyme activity, Lymphs: 0.98
Lymphocytes [5]; J22 12/2/91 A M L
  enzyme activity, Lymphs: 0.74
Lymphocytes [5]; J22 12/9/91 A M L
  enzyme activity, Lymphs: 1.20
Lymphocytes [5]; N192 normal
  enzyme activity, Lymphs: 0.56
Lymphocytes [5]; N193 normal
  enzyme activity, Lymphs: 0.52
Lymphocytes [5]; N194 normal
  enzyme activity, Lymphs: 0.93
Lymphocytes [5]; N197 normal
  enzyme activity, Lymphs: 0.70
Lymphocytes [5]; N199 normal
  enzyme activity, Lymphs: 0.33
Lymphocytes [5]; N200 normal
  enzyme activity, Lymphs: 0.90
Lymphocytes [5]; N202 normal
  enzyme activity, Lymphs: 0.71
Lymphocytes [5]; P71 ac. pyelonephritis
  enzyme activity, Lymphs: 0.91

## O=C1OC2(c3ccc(NC(=O)[C@@H]4CCCN4)cc3Oc3cc(NC(=O)[C@@H]4CCCN4)ccc32)c2ccccc21 [PRO, (H-L-Pro)2 --Rho 110 .2TFA]
Granulocytes [2]; J19 11/27/91 C L L
  enzyme activity, Grans: 5.50
Granulocytes [2]; N195 normal
  enzyme activity, Grans: 4.70
Granulocytes [2]; P69 pancreatic CA
  enzyme activity, Grans: 5.70
Granulocytes [2]; P70 cirrhosis/hemobilia
  enzyme activity, Grans: 0.66
monocytes; P92 Adenitis
  aberrant enzyme activity, MONOS: .smallcircle.
monocytes; P97 Pyelonephritis
  aberrant enzyme activity, MONOS: .smallcircle.
monocytes; P103 Viral Syndrome
  aberrant enzyme activity, MONOS: .smallcircle.
Granulocytes [3]; P92 Adenitis
  aberrant enzyme activity, GRANS: .smallcircle.
Granulocytes [3]; P97 Pyelonephritis
  aberrant enzyme activity, GRANS: .smallcircle.
Granulocytes [3]; P103 Viral Syndrome
  aberrant enzyme activity, GRANS: .smallcircle.
Lymphocytes [4]; P92 Adenitis
  aberrant enzyme activity, LYMPHS: .smallcircle.
Lymphocytes [4]; P97 Pyelonephritis
  aberrant enzyme activity, LYMPHS: .smallcircle.
Lymphocytes [4]; P103 Viral Syndrome
  aberrant enzyme activity, LYMPHS: .smallcircle.
[1]; HIV + PATIENTS
  MEAN DELTA FL: 11.0
[1]; NORMALS
  MEAN DELTA FL: 11.4
Lymphocytes [5]; J4 11/21/91 acute leuk.
  enzyme activity, Lymphs: 0.47
Lymphocytes [5]; J4 12/2/91 A L
  enzyme activity, Lymphs: 0.29
Lymphocytes [5]; J4 12/3/91 acute leuk.
  enzyme activity, Lymphs: 0.24
Lymphocytes [5]; J5 11/27/91 A M L
  enzyme activity, Lymphs: 0.89
Lymphocytes [5]; J19 11/27/91 C L L
  enzyme activity, Lymphs: 0.44
Lymphocytes [5]; J22 12/2/91 A M L
  enzyme activity, Lymphs: 0.40
Lymphocytes [5]; J22 12/9/91 A M L
  enzyme activity, Lymphs: 0.44
Lymphocytes [5]; N191 normal
  enzyme activity, Lymphs: 0.69
Lymphocytes [5]; N193 normal
  enzyme activity, Lymphs: 0.95
Lymphocytes [5]; N194 normal
  enzyme activity, Lymphs: 0.86
Lymphocytes [5]; N195 normal
  enzyme activity, Lymphs: 0.88
Lymphocytes [5]; N197 normal
  enzyme activity, Lymphs: 0.57
Lymphocytes [5]; N200 normal
  enzyme activity, Lymphs: 0.74
Lymphocytes [5]; N201 normal
  enzyme activity, Lymphs: 1.10
Lymphocytes [5]; N202 normal
  enzyme activity, Lymphs: 0.89
Lymphocytes [5]; P68 tachycardia
  enzyme activity, Lymphs: 0.70
Lymphocytes [5]; P69 pancreatic CA
  enzyme activity, Lymphs: 0.66
Lymphocytes [5]; P70 cirrhosis/hemobilia
  enzyme activity, Lymphs: 0.56
Lymphocytes [5]; P71 ac. pyelonephritis
  enzyme activity, Lymphs: 0.52

## C[C@@H](O)[C@H](N)C(=O)N1CCC[C@H]1C(=O)Nc1ccc2c(c1)Oc1cc(NC(=O)[C@@H]3CCCN3C(=O)[C@@H](N)[C@@H](C)O)ccc1C21OC(=O)c2ccccc21 [THR--PRO*]
[1]; HIV + PATIENTS
  MEAN DELTA FL: 10.2
[1]; NORMALS
  MEAN DELTA FL: 17.3
